Source: EP1953147A1, “HETEROCYCLIC COMPOUND AND MEDICINAL APPLICATION THEREOF” (priority 2005, dated 2007)
Where a name gives a salt, the structure may show the parent alone.

Tested on: ΔG/SEAP/HCV E1E2
Assay: Effect of test substance on cell infection with HCV pseudotype virus (SEAP reporter assay in HepG2 cells)
Format: cell-based
Conditions: Hepatitis C virus

Row | Structure (SMILES) | IC50
1 | O=c1c2c(c(-c3ccc(Cl)cc3)nn1-c1cc(N3CC[C@H](O)C3)ccc1C(F)(F)F)CCC2 [Example 78, 4-(4-chloro-phenyl)-2-[5-((S)-3-hydroxy-pyrrolidin-1-yl)-2-trifluoromethyl-phenyl]-2,5,6,7-tetrahydro-cyclopenta[d]pyridazin-1-one] | < 100 nM
2 | COc1cc(OC)cc(-c2nn(-c3cc(CN(C)C)ccc3C(F)(F)F)c(=O)c3c2CCC3)c1 [Example 160, 4-(3,5-dimethoxy-phenyl)-2-(5-dimethylaminomethyl-2-trifluoromethyl-phenyl)-2,5,6,7-tetrahydro-cyclopenta[d]pyridazin-1-one hydrochloride] | 100 to 10000 nM
3 | CCCCNC(=O)CN1CCc2c(-c3cc(OC)cc(OC)c3)nn(-c3cc(N4CC[C@H](O)C4)ccc3C(F)(F)F)c(=O)c21 [Example 34, N-butyl-2-{4-(3,5-dimethoxy-phenyl)-6-[5-((S)-3-hydroxy-pyrrolidin-1-yl)-2-trifluoromethyl-phenyl]-7-oxo-2,3,6,7-tetrahydro-pyrrolo[2,3-d]pyridazin-1-yl}-acetamide] | < 100 nM
4 | COc1cc(OC)cc(-c2nn(-c3cc(NC4CC4)ccc3C(F)(F)F)c(=O)c3c2CCC3)c1 [Example 140, 2-(5-cyclopropylamino-2-trifluoromethyl-phenyl)-4-(3,5-dimethoxy-phenyl)-2,5,6,7-tetrahydro-cyclopenta[d]pyridazin-1-one] | < 100 nM
5 | Cc1cc(-c2cnco2)cc(-c2nn(-c3cc(-c4cccnn4)ccc3C(F)(F)F)c(=O)c3c2CC(C)N3)c1 (centres unmarked) [Example 5, 2-methyl-4-(3-methyl-5-oxazol-5-yl-phenyl)-6-(5-pyridazin-3-yl-2-trifluoromethyl-phenyl)-1,2,3,6-tetrahydro-pyrrolo[2,3-d]pyridazin-7-one] | < 100 nM
6 | O=C(O)c1cccc(-c2nn(-c3cc(N4CC[C@H](O)C4)ccc3C(F)(F)F)c(=O)c3c2CCC3)c1 [Example 79, 3-{3-[5-((S)-3-hydroxy-pyrrolidin-1-yl)-2-trifluoromethyl-phenyl]-4-oxo-4,5,6,7-tetrahydro-3H-cyclopenta[d]pyridazin-1-yl}-benzoic acid] | 100 to 10000 nM
7 | O=c1c2c(c(C3=CCCCC3)nn1-c1cc(N3CC[C@H](O)C3)ccc1C(F)(F)F)CCC2 [Example 113, 4-cyclohex-1-enyl-2-[5-((S)-3-hydroxy-pyrrolidin-1-yl)-2-trifluoromethyl-phenyl]-2,5,6,7-tetrahydro-cyclopenta[d]pyridazin-1-one] | 100 to 10000 nM
8 | COc1cc(-c2nn(-c3cc(N4CC[C@H](O)C4)ccc3C(F)(F)F)c(=O)c3c2CCC3)ccn1 [Example 93, 2-[5-((S)-3-hydroxy-pyrrolidin-1-yl)-2-trifluoromethyl-phenyl]-4-(2-methoxy-pyridin-4-yl)-2,5,6,7-tetrahydro-cyclopenta[d]pyridazin-1-one] | 100 to 10000 nM
9 | COc1cncc(-c2nn(-c3cc(N4CC[C@H](O)C4)ccc3C(F)(F)F)c(=O)c3c2CCN3C(N)=O)c1 [Example 1-29, 6-[5-((S)-3-hydroxy-pyrrolidin-1-yl)-2-trifluoromethylphenyl]-4-(5-methoxy-pyridin-3-yl)-7-oxo-2,3,6,7-tetrahydro-pyrrolo[2,3-d]pyridazine-1-carboxamide] | < 100 nM
10 | COc1cc(OC)cc(-c2nn(-c3cc(NCC(=O)N(C)C)ccc3C(F)(F)F)c(=O)c3c2CCC3)c1 [Example 125, 2-{3-[4-(3,5-dimethoxy-phenyl)-1-oxo-1,5,6,7-tetrahydro-cyclopenta[d]pyridazin-2-yl]-4-trifluoromethyl-phenylamino}-N,N-dimethyl-acetamide] | < 100 nM
11 | COc1cc(OC)cc(-c2nn(-c3cc(N4CC[C@H](O)C4)ccc3C(F)(F)F)c(=O)c3c2CCN3CC(=O)NCCNC(C)=O)c1 [Example 39, N-(2-acetylamino-ethyl)-2-{4-(3,5-dimethoxy-phenyl)-6-[5-((S)-3-hydroxy-pyrrolidin-1-yl)-2-trifluoromethyl-phenyl]-7-oxo-2,3,6,7-tetrahydro-pyrrolo[2,3-d]pyridazin-1-yl}-acetamide] | < 100 nM
12 | NC(=O)c1cccc(-c2nn(-c3cc(N4CC[C@H](O)C4)ccc3C(F)(F)F)c(=O)c3c2CCC3)c1 [Example 98, 3-{3-[5-((S)-3-hydroxy-pyrrolidin-1-yl)-2-trifluoromethyl-phenyl]-4-oxo-4,5,6,7-tetrahydro-3H-cyclopenta[d]pyridazin-1-yl}-benzamide] | 100 to 10000 nM
13 | COc1cc(OC)cc(-c2nn(-c3cc(CCCO)ccc3C(F)(F)F)c(=O)c3c2CCC3)c1 [Example 121, 4-(3,5-dimethoxy-phenyl)-2-[5-(3-hydroxy-propyl)-2-trifluoromethyl-phenyl]-2,5,6,7-tetrahydro-cyclopenta[d]pyridazin-1-one] | < 100 nM
14 | Cc1cc(C)cc(-c2nn(-c3cc(-c4cccnn4)ccc3C(F)(F)F)c(=O)c3c2CC(C)N3)c1 (centres unmarked) [Example 12, 4-(3,5-dimethyl-phenyl)-2-methyl-6-(5-pyridazin-3-yl-2-trifluoromethyl-phenyl)-1,2,3,6-tetrahydro-pyrrolo[2,3-d]pyridazin-7-one] | < 100 nM
15 | COc1cc(OC)cc(-c2nn(-c3cc(N4CC(CO)C4)ccc3C(F)(F)F)c(=O)c3c2CCN3)c1 [Example 1-42, 4-(3,5-dimethoxy-phenyl)-6-[5-(3-hydroxymethyl-azetidin-1-yl)-2-trifluoromethyl-phenyl]-1,2,3,6-tetrahydro-pyrrolo[2,3-d]pyridazin-7-one] | < 100 nM
16 | O=c1c2c(c(-c3ccncc3)nn1-c1cc(N3CC[C@H](O)C3)ccc1C(F)(F)F)CCC2 [Example 95, 2-[5-((S)-3-hydroxy-pyrrolidin-1-yl)-2-trifluoromethyl-phenyl]-4-pyridin-4-yl-2,5,6,7-tetrahydro-cyclopenta[d]pyridazin-1-one] | 100 to 10000 nM
17 | Cc1cc(-c2cnco2)cc(-c2nn(-c3cc(N4CC[C@H](O)C4)ccc3C(F)(F)F)c(=O)c3c2CCCN3)c1 [Example 1-38, 7-[5-((S)-3-hydroxy-pyrrolidin-1-yl)-2-trifluoromethylphenyl]-5-[3-methyl-5-(oxazol-5-yl)-phenyl]-1,3,4,7-tetrahydro-2H-pyrido[2,3-d]pyridazin-8-one] | < 100 nM
18 | CC(C)Cc1nn(-c2cc(N3CC[C@H](O)C3)ccc2C(F)(F)F)c(=O)c2c1CCC2 [Example 144, 2-[5-((S)-3-hydroxy-pyrrolidin-1-yl)-2-trifluoromethyl-phenyl]-4-isobutyl-2,5,6,7-tetrahydro-cyclopenta[d]pyridazin-1-one] | 100 to 10000 nM
19 | COC(=O)CCNc1ccc(C(F)(F)F)c(-n2nc(-c3cc(OC)cc(OC)c3)c3c(c2=O)CCC3)c1 [Example 143, 3-{3-[4-(3,5-dimethoxy-phenyl)-1-oxo-1,5,6,7-tetrahydro-cyclopenta[d]pyridazin-2-yl]-4-trifluoromethyl-phenylamino}-propionic acid methyl ester] | < 100 nM
20 | COc1cc(OC)cc(-c2nn(-c3cc(NCCCC(=O)O)ccc3C(F)(F)F)c(=O)c3c2CCC3)c1 [Example 151, 4-{3-[4-(3,5-dimethoxy-phenyl)-1-oxo-1,5,6,7-tetrahydro-cyclopenta[d]pyridazin-2-yl]-4-trifluoromethyl-phenylamino}-butyric acid] | < 100 nM
